Results: US20260183302A1, “PDK1 REGULATORY COMPOUND AND COMPOSITION CONTAINING THE SAME” (PROVIBIO CO., LTD., priority 2024, published 2026)

Tests used:
Type in all cases: cell-based
[1] = tested on: Human Osteosarcoma, Saos-2; assay: Relative cell viability, Saos-2 (CCK-8)
Method: Human-derived head and neck cancer cell line Fadu and osteosarcoma cell line Saos-2 were cultured in MEM medium containing 10% FBS, 100 U/mL penicillin, and 100 μg/mL streptomycin.
(§1) Following stabilization, the cells were harvested using Trypsin-EDTA treatment, centrifuged at 1,200 rpm for 3 minutes, the supernatant was removed, and the cells were resuspended in the same medium. They were then seeded into a 96-well plate (Costar 96-well cell culture plate, Corning) at 100 μL per well, and the conditions were adjusted as indicated in Table 5.
The cells were cultured in a 5% CO2 incubator at 37° C. for 24 hours, and after stabilization of the cells, each plate was washed with 200 μL of PBS per well and treated with 50 μL of culture medium per well. […]
(§2) After that, 10 μL of CCK-8 was added to each well, and the plate was incubated again at 37° C. in a 5% CO2 incubator for 2 hours.
(§3) In other words, when the survival rate of untreated cells (DMSO) is set at 100%, the relative cell survival rate in each group treated with the drug at different concentrations is indicated.

[2] = tested on: Human Colorectal Carcinoma cell line, HCT-116; assay: Relative cell viability, HCT-116 (CCK-8); details: 48 hours
Method: Human-derived breast cancer cell line MCF-7, human-derived lung cancer cell line A549, human-derived colorectal cancer cell line HCT-116, human pancreatic cancer cell line AsPC-1, glioblastoma cell line A172, and melanoma cell line Malme-3M were obtained from the Korean Cell Bank. gastric cancer cell line SNU-719, and bladder cancer cell line T24 were cultured in RPMI-1640 medium containing 10% FBS.
as §1
The cells were cultured in a 5% CO2 incubator at 37° C. for 24 hours, and after stabilization of the cells, each plate was washed with 200 μL of PBS per well and treated with 50 μL of culture medium per well.
as §2, §3

[3] = tested on: Human multiple myeloma, KMS34; assay: Relative cell viability, KMS34 (CCK-8); details: concentration 1 μM, relative to untreated cells
Method: as §2, §3

[4] = tested on: Human B Lymphocyte cell line, SU-DHL-8; assay: Relative cell viability, SU-DHL-8 (CCK-8); details: 48 hours, untreated (DMSO) = 100%
Method: Human-derived B lymphoma cell line SU-DHL-8 (Cat. #CRL-2961) purchased from ATCC was cultured in RPMI-1640 medium containing 10% FBS, 100 U/mL penicillin, and 100 μg/mL streptomycin.
The cell culture medium was then harvested, centrifuged at 1,300 rpm for 5 minutes, and the supernatant was removed. The cells were resuspended in the same medium and dispensed into a 96-well plate (Costar 96-well cell culture plate, Corning) at 90 μL per well, resulting in the conditions specified in Table 5.
Then, 10 μL of CCK-8 was added to each well, and the plates were incubated again at 37° C. in a 5% CO2 incubator for 4 hours.
as §3

[5] = tested on: human lung fibroblasts MRC-5; assay: TGF-β induced Collagen I expression in MRC-5 cells (Western blot); details: MRC-5, TGF-β (5 ng/ml), 0.5 μM and 1 μM, 24 hours
Method: To confirm that the compound of the present invention directly acts on fibrosis-related mechanisms, in vitro experiments were performed using human lung fibroblasts MRC-5 cell lines (Korea Cell Bank).
First, MRC-5 cells were seeded at 5×10^3 cells per well in a 6-well plate and stabilized for 24 hours.
Subsequently, experimental groups were established, including a control group, a group treated with TGF-β (5 ng/ml) alone, and groups treated with TGF-β and the compound GO88 from the present invention at concentrations of 0.5 μM and 1 μM, respectively.
After treating each group with the drugs for 24 hours, the cell medium was removed, and the cells were washed twice with cold PBS. Then, RIPA lysis buffer containing phosphatase inhibitor and protease inhibitor was added to each group to extract proteins.
The extracted proteins were incubated at 4° C. for 30 minutes, then centrifuged at 13,000 rpm for 15 minutes, and the supernatant was collected. The total protein concentration was measured using the BCA protein quantification method.
Subsequently, the proteins were separated by SDS-PAGE, transferred to a PVDF membrane, and Western blot analysis was performed.
The expression levels of Collagen I, a marker related to pulmonary fibrosis, were confirmed, with GAPDH used as an internal control.

[6] = tested on: NHDF (Normal Human Dermal Fibroblast) cells; assay: Anti-aging in doxorubicin/IGF-1 aged NHDF cells (SA-β-gal, Ki-67 FACS); details: Doxorubicin (100 ng/ml) and IGF-1 (100 ng/ml), GO15F 0.01, 1 μM, 7 days
Method: To confirm the anti-aging and rejuvenating effects of the compound GO15F of the present invention, a NHDF (Normal Human Dermal Fibroblast, Promocell) cell model was established by inducing aging with doxorubicin (Doxorubicin), and β-galactosidase activity and Ki-67 expression were analyzed in the cells. First, NHDF cells were seeded at 1×10^4 cells per well in a 12-well plate and stabilized for 24 hours. […] After pre-incubation, the medium was removed, and the cells were cultured for 7 days in medium containing Doxorubicin (100 ng/ml) and IGF-1 (100 ng/ml) with GO15F. During this process, the medium was replaced with fresh medium every 2 days. The cultured cells were washed with PBS, fixed with 1× fixation buffer for 15 minutes, washed again with PBS, and then 300 μL of 1× working SA-β-gal buffer was added to each well. The cells were incubated at 37° C. for 24 hours. After the reaction was terminated, the cells were washed with PBS, and the […] of β-gal-positive cells stained blue was observed and photographed using a light microscope. Additionally, to investigate the effect of the compound (GO15F) of the present invention on proliferation activity in aging-induced NHDF (Normal Human Dermal Fibroblast) cells, Ki-67 expression was measured via FACS analysis. First, NHDF cells were seeded at 1×10^4 cells per well in a 12-well plate and stabilized for 24 hours. […]

“12-[4-(2,2-dimethylmorpholin-4-yl)]dodecyl-N-(6-aminopurine-2-yl) carboxamide [Compound 11]” was tested, and the “Relative cell viability (%)” value ([1]; Saos-2, 10 μM, 48 hours) was 24.98%, the “Relative cell viability (%)” value ([1]; Saos-2, 30 μM, 48 hours) was 16.00% and the “Relative cell viability (%)” value ([1]; Saos-2, 50 μM, 48 hours) was 36.73%. For the same compound, the “Relative cell viability (%)” value ([1]; Saos-2, 48 hours) was 36.73%, the “Relative cell viability (%)” value ([2]; HCT-116, 1 μM) was 21.36% and the “Relative cell viability (%)” value ([2]; HCT-116, 10 μM) was 24.91%. For the same compound, the “Relative cell viability (%)” value ([2]; HCT-116, 30 μM) was 24.78%, the “Relative cell viability (%)” value ([2]; HCT-116, 50 μM) was 25.26% and the “Relative cell viability (%)” value [3] was 26.19%. For the same compound, the “Relative cell viability (%)” value ([4]; SU-DHL-8, 1 μM) was 7.63%, the “Relative cell viability (%)” value ([4]; SU-DHL-8, 10 μM) was 6.09% and the “Relative cell viability (%)” value ([4]; SU-DHL-8, 30 μM) was 4.82%. For the same compound, the “Relative cell viability (%)” value ([4]; SU-DHL-8, 50 μM) was 3.29%.
Nc1ncccc1C(=O)NCCCCCCCCCCCCN1CCNCC1 [Compound 14, 2-Amino-N-(12-(piperazin-1-yl)dodecyl)nicotinamide] was tested, and the “protein expression of Collagen I” value [5] was “inhibited in a concentration-dependent manner”.
With Nc1ncccc1C(=O)NCCCCCCCCCCCCF [Compound 57, 2-Amino-N-(12-fluoro-dodecyl)-nicotinamide] the “β-galactosidase activity (β-gal-positive cells)” value [6] was “number of β-gal-positive cells decreased”.
